Tests used:
Rat Hepatocytes [1] = test: Inhibition of Gluconeogenesis in Rat Hepatocytes (Example C); assay type: cell-based; settings: glucose production from 10 mM lactate, 1 mM pyruvate, 1 hour, hepatocytes from fed Sprague-Dawley rats
Description: Hepatocytes (75 mg wet weight/ml) were incubated in 1 ml Krebs-bicarbonate buffer containing 10 mM Lactate, 1 mM pyruvate, 1 mg/ml BSA, and test compound concentrations from 0 to 500 µM. […] After 1 hour, an aliquot (0.25 ml) was removed, transferred to an Eppendorf tube and centrifuged. 50 µl of supernatant was then assayed for glucose content using a Sigma Glucose Oxidase kit as per the manufacturer's instructions.

Rat Hepatocytes [2] = test: Inhibition of glucose production and elevation of fructose-1,6-bisphosphate levels in rat hepatocytes (Example D); assay type: cell-based; settings: isolated rat hepatocytes
Description: Hepatocytes were prepared from fed Sprague-Dawley rats (250-300 g) according to the procedure of Berry and Friend (Berry, M.N., Friend, D.S., 1969, J. Cell. Biol. 43, 506-520) as modified by Groen (Groen, A.K., Sips, H.J., Vervoom, R.C., Tager, J.M. , 1982, Eur. J. Biochem. 122, 87-93). Hepatocytes (75 mg wet weight/ml) were incubated in 1 ml Krebs-bicarbonate buffer containing 10 mM Lactate, 1 mM pyruvate, 1 mg/ml BSA, and test compound concentrations from 0 to 500 µM. Incubations were carried out in a 95% oxygen, 5% carbon dioxide atmosphere in closed, 50-ml Falcon tubes submerged in a rapidly shaking water bath (37°C). After 1 hour, an aliquot (0.25 ml) was removed, transferred to an Eppendorf tube and centrifuged. 50 µl of supernatant was then assayed for glucose content using a Sigma Glucose Oxidase kit as per the manufacturer's instructions.
Rat hepatocytes were isolated and incubated as described in Example C. Cell extracts, were analyzed for glucose content as described in Example C, and also for fructose 1,6-bisphosphate. Fructose 1,6-bisphosphate was assayed spectrophotometrically by coupling its enzymatic conversion to glycerol 3-phosphate to the oxidation of NADH, which was monitored at 340 nm. […] After a 30 minute preincubation at 37°C, 1 unit/ml of aldolase was added and the change in absorbance measured until a stable value was obtained. […]

Normal Fasted Rats = test: Glucose lowering after intraperitoneal administration to normal fasted rats (Example F); assay type: in vivo; settings: 18-hour fasted Sprague-Dawley rats, one hour post injection
Description: Sprague-Dawley rats (250-300 g) were fasted for 18 hours and then dosed intraperitoneally either with saline or FBPase inhibitor. The vehicle used for drug administration was 10 mM bicarbonate. One hour post injection, rats were anesthetized with halothane, and liver and blood samples were taken and processed as described in Example E. The neutralized liver extracts were analyzed for FBPase inhibitor content by HPLC. A reverse phase YMC ODS AQ column ([…]) was used and eluted with a gradient from 10 mM sodium phosphate pH 5.5 to 75% acetonitrile. Absorbance was monitored at 310 nm. Glucose was measured in the blood sample as described in Example C. Plasma was prepared by centrifugation and extracted by addition of methanol to 60% (v/v). The methanolic extract was clarified by centrifugation and filtration and then analyzed by HPLC as described above.

type 2 diabetics = settings: most common side-effect; cited from earlier work
db/db mouse [3] = test: Combination treatment with Troglitazone and Compound A in the db/db mouse - blood glucose (Example T); assay type: in vivo, C57BL/KsJ-db/db mice; settings: for Blood glucose, mg/dl (8 am day 4): fed
Text: Male C57BL/KsJ-db/db mice were obtained from Jackson Laboratories (Bar Harbor, Maine) at 9 weeks of age. […] Group 1 (controls) received powdered Purina 5008 chow alone. […] This dose is reported to elicit the maximal hypoglycemic effect of Troglitazone in this model (Fujiwara et al 1995). […] Results are considered significant with p<0.05.

ZDF rat [4] = test: Combination treatment in the ZDF rat - plasma triglycerides (Example O); assay type: in vivo, Zucker Diabetic Fatty (ZDF) rat; settings: for Plasma Triglycerides, mg/dl (Mean ± SEM): final day of treatment
Text: Results are considered significant with p<0.05.

ZDF rat [5] = test: Combination treatment in the ZDF rat - plasma insulin (Example P); assay type: in vivo, Zucker Diabetic Fatty (ZDF) rat; settings: Troglitazone-Compound G study, final day of treatment
Description: Plasma was prepared by centrifugation and insulin levels then measured by means of an enzyme-linked immunoassay kit according to the instructions of the manufacturer (Amersham Life Sciences). […] Results are considered significant with p<0.05.

db/db mouse [6] = test: Combination treatment with Troglitazone and Compound G in the db/db mouse - blood glucose (Example S); assay type: in vivo; settings: db/db mice, Troglitazone 0.1%, mean ± SEM
Text: Treatment was for 18 days. […] Results are considered significant with p<0.05.

ZDF rat [7] = test: Combination treatment with Troglitazone and Compound G or Compound J in the ZDF rat - blood glucose (Example N); assay type: in vivo, Zucker Diabetic Fatty (ZDF) rat; settings: for Blood Glucose, mg/dl Day 0: Day 0 (baseline); for Blood Glucose, mg/dl Day 21: Compound J 0.4% food admixture for 21 days
Description: (§1) At 11 weeks of age, animals with blood glucose >500 mg/dl were selected and divided into 4 treatment groups (n=8/group). […] Blood glucose levels were measured in tail vein samples by means of a HemoCue glucose analyzer (HemoCue Inc., Mission Viejo, CA). Values are expressed as the mean plus or minus the standard error of the mean. Differences between groups were evaluated by analysis of variance with the Tukey-Kramer post hoc test.

ZDF rat [8] = test: Combination treatment in the ZDF rat - blood lactate (Example Q); design: species or system Zucker Diabetic Fatty (ZDF) rat; settings: in vivo
Text: Blood samples were taken from the tail vein on days 0, 3, 7, 10 and 14 of the Troglitazone-Compound G combination study and on days 0,7,14, and 21 of the Troglitazone-Compound J combination study (study protocols are described in Example N).

[9] = Oral bioavailability determination by the urinary excretion method in the rat (Example G); assay type: in vivo, Sprague Dawley rats
Description: The oral bioavailability of prodrugs and parent compounds was determined by the urinary excretion method in the rat. Prodrugs were dissolved in 10% ethanol/90% polyethylene glycol (mw 400) and administered by oral gavage at doses of 10 to 40 mg/kg parent compound equivalents to 6-hour fasted, Sprague Dawley rats (220-240 g). Parent compounds were typically dissolved in deionized water, neutralized with sodium hydroxide, and then administered orally at 10-40 mg/kg or intravenously at ~10 mg/kg. The rats were subsequently placed in metabolic cages and urine was collected for 24 hours. The quantity of parent compound excreted into urine was determined by HPLC analysis as described in Example F. Analysis was performed as described in Example F. For prodrugs, the percentage oral bioavailability was estimated by comparison of the recovery in urine of the parent compound generated from the prodrug administered orally, to that recovered in urine following intravenous administration of the corresponding parent compound. For parent compounds, the percentage oral bioavailability was estimated by comparison of the recovery in urine of the parent compound when administered orally to that recovered when administered intravenously.

human liver FBPase = test: Inhibition of Human Liver FBPase (Example A); assay type: biochemical; settings: […] fructose 1,6-bisphosphate, 37°C
Mouse liver FBPase = test: Inhibition of mouse liver FBPase (Example B); assay type: biochemical; settings: partially purified mouse liver FBPase, assayed as for human liver FBPase
Description: (§2) Mouse liver FBPase was obtained by homogenizing freshly isolated mouse liver in 100 mM Tris-HCl buffer, pH 7.4, containing 1 mM EGTA, and 10% glycerol. […] This fraction was redissolved in the homogenization buffer and desalted on a PD-10 gel filtration column (Biorad) eluted with same. This partially purified fraction was used for enzyme assays.

rat liver FBPase = test: Inhibition of rat liver FBPase (Example B); assay type: biochemical; settings: assayed as for human liver FBPase
Description: as §2

ZDF rat [10] = test: Combination treatment with Rosiglitazone and Compound G in the ZDF rat - blood glucose (Example R); assay type: in vivo, Zucker Diabetic Fatty (ZDF) rat; settings: Rosiglitazone 0.0045%, Compound G 0.2% food admixture, 25 days
Description: as §1

[11] = Troglitazone-Compound J study, Troglitazone 0.2%, Compound J 0.4% food admixture, mean ± SEM
[12] = Troglitazone-Compound J study, Troglitazone 0.2%, mean ± SEM

SMILES: CC(C)Cc1sc(N)nc1-c1ccc(P(=O)(N[C@@H](C)C(=O)OCc2ccccc2)N[C@@H](C)C(=O)OCc2ccccc2)o1 [Compound K, 2-Amino-5-isobutyl-4-[2-(5-N,N-bis(L-alanine acid dibenzyl ester)phosphonoamido)furanyl]thiazole]
- IC50 (Rat Hepatocytes [1]): 2100 nM

SMILES: CCc1cc(F)c(N)c2nc(-c3ccc(P(=O)(O)O)o3)n(CC(C)C)c12 [Compound E]
- intracellular fructose 1,6-bisphosphate (Rat Hepatocytes [2]): dose-dependent elevation of intracellular fructose 1,6-bisphosphate
- Glucose Lowering, % (Normal Fasted Rats): 44.4%

SMILES: Cc1c(C)c2c(c(C)c1O)CCC(C)(COc1ccc(CC3SC(=O)NC3=O)cc1)O2 (centres unmarked) [Troglitazone]
- elevation of liver enzymes (hepatotoxicity) (type 2 diabetics): 1 % of patients
- Blood glucose, mg/dl 2 pm, day 7 (db/db mouse [3]; 6 hours post second dose of Compound A 250 mg/kg (Group 3) or vehicle (Group 2), food withheld): 195 ± 12.1 mg/dL
- Blood glucose, mg/dl (8 am day 4) (db/db mouse [3]; Group 2, Troglitazone 0.1% admixture): 240 ± 21.3 mg/dL
- Blood glucose, mg/dl (8 am day 4) (db/db mouse [3]; Group 3, Troglitazone 0.1% admixture, before the first dose of Compound A): 237.5 ± 18.5 mg/dL
- Blood glucose, mg/dl (5 pm day 4) (db/db mouse [3]; nine hours after single oral dose of Compound A 250 mg/kg (Group 3) or vehicle (Group 2), Troglitazone 0.1% admixture): 232.5 ± 17 mg/dL
- Plasma Triglycerides, mg/dl (Mean ± SEM) (ZDF rat [4]; Troglitazone-Compound G study): 131 ± 16 mg/dL
- Plasma Triglycerides, mg/dl (Mean ± SEM) (ZDF rat [4]; Troglitazone-Compound J study): 249 ± 60 mg/dL
- Plasma Insulin, ng/ml (Mean ± SEM) (ZDF rat [5]): 3.61 ± 1.03 ng/mL
- Blood Glucose, mg/dl Day 0 (db/db mouse [6]; Day 0 (baseline), Compound G 0.4% food admixture): 710 ± 44 mg/dL
- Blood Glucose, mg/dl Day 18 (db/db mouse [6]; Compound G 0.4% food admixture for 18 days): 509 ± 70 mg/dL
- Blood Glucose, mg/dl Day 0 (ZDF rat [7]; Troglitazone-Compound G study, drugs as 0.2% food admixtures, mean ± SEM, n=8/group): 655 ± 33 mg/dL
- Blood Glucose, mg/dl Day 14 (ZDF rat [7]; Troglitazone-Compound G study, drugs as 0.2% food admixtures for 15 days, mean ± SEM): 431 ± 73 mg/dL
- Blood Glucose, mg/dl Day 0 (ZDF rat [7]; [11]): 669 ± 23 mg/dL
- Blood Glucose, mg/dl Day 21 (ZDF rat [7]; [12]): 514 ± 135 mg/dL
- IC50 (Rat Hepatocytes [1]; Rattus norvegicus, Hepatocyte): > 100000 nM

SMILES: CCOC(=O)[C@H](C)NP(=O)(N[C@@H](C)C(=O)OCC)c1ccc(-c2nc(N)sc2CC(C)C)o1 [Compound J, 2-Amino-5-isobutyl-4-{2-[5-(N,N'-bis((S)-1-ethoxycarbonyl)ethyl)phosphonamido]furanyl}thiazole]
- blood lactate typically elevated over baseline (ZDF rat [8]): ~ 2 fold
- maximal blood lactate elevations over baseline (ZDF rat [8]): 3 fold
- Plasma Triglycerides, mg/dl (Mean ± SEM) (ZDF rat [4]; Troglitazone-Compound J study): 759 ± 76 mg/dL
- elevation of plasma triglycerides (ZDF rat [4]; monotherapy vs control, ZDF rat): ~2 fold
- Blood Glucose, mg/dl Day 0 (ZDF rat [7]; [11]): 674 ± 20 mg/dL
- Blood Glucose, mg/dl Day 21 (ZDF rat [7]; [12]): 452 ± 40 mg/dL
- blood glucose lowering in pilot studies (dose selection) (ZDF rat [7]; ZDF rat, food admixture, pilot studies): a trend (not significant) towards more pronounced blood glucose lowering at 0.4% than at 0.2%
- Oral bioavailability, % ([9]; rat, in vivo, po, 24 h): 21%

SMILES: Nc1ncnc2c1ncn2[C@@H]1O[C@H](COP(=O)(O)O)[C@@H](O)[C@H]1O [AMP]
- IC50 (human liver FBPase): 1300 nM
- IC50 (Mouse liver FBPase): 15 µM
- IC50 (rat liver FBPase): 25 µM

SMILES: CSc1nc(-c2ccc(P(=O)(O)O)o2)c(CC(C)C)s1 [Compound H, 2-Methylthio-5-isobutyl-4-[2-(5-phosphono)furanyl]thiazole]
- Oral bioavailability, % ([9]; estimated, urinary excretion of parent compound over 24 hours, oral 10-40 mg/kg vs intravenous ~10 mg/kg, 6-hour fasted rats): 4%
- IC50 (rat liver FBPase): 0.175 µM

SMILES: CN(CCOc1ccc(CC2SC(=O)NC2=O)cc1)c1ccccn1 (centres unmarked) [Rosiglitazone]
- Responders (rats whose blood glucose levels were lower on day 25 than on day 0) (ZDF rat [10]): 6/10
